In patent publication US10835500B2, “Medicament for accelerated wound healing” (Symrise AG, priority 2014, dated 2020):

Columns and labels:
[1] = molecular target: T1, recombinantly expressed OR2AT4 (Homo sapiens, UniProt A6NND4); experiment: Calcium imaging of transiently OR2AT4-transfected Hana3A cells; type: cell-based; details: for response rate of the Hana3A cells relative to the Ringer control: 1 mM odorant, 20 s stimulation, OR2AT4-transfected Hana3A cells; for agonist or antagonist to heterologously expressed OR2AT4: summary of calcium imaging and luciferase results
T1 construct: expressed in transfected cells; host or cells: Hana3A cells, transient transfection with pcDNA3-OR2AT4 by the calcium phosphate method
T1 sequence (A6NND4 1-320): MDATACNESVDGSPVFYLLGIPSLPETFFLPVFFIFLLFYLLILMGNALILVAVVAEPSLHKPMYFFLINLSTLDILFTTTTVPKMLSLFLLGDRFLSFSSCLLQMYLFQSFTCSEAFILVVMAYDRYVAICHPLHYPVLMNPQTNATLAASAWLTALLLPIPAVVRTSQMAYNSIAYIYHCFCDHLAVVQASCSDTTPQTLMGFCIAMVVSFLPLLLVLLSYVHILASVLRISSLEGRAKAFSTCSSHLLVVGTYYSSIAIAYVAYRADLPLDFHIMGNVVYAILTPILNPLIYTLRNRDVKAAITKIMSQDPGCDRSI
Method: Hana3A cells expressing stable endogenous olfactory transduction factors, which specifically target the incorporation of ORs into the cell membrane and thus improve activation capacity, were used as a heterologous expression system. Moreover, the 20 first N-terminal amino acids of rhodopsins (Rho-tag) were added before the N-terminus of the coding sequence of the OR, also in order to support heterologous expression.
A method established at the Department of Cell Physiology of Ruhr University Bochum for deorphanization studies is calcium imaging, in which activation of an OR by an odorant is visualized by a change in the intracellular calcium concentration of transfected cells using a fluorescent dye [cf. Wetzel et al. in: J. Neurosci. 19, pp. 7426-7433 (1999); Spehr et al. in: Science 299, pp. 2054-2058 (2003); Neuhaus et al. in: J. Biol. Chem. 284, pp. 16218-16225 (2009)]. In this method, the Hana3A cells are briefly (20 s) stimulated with an odorant and selected for odorant screenings of high concentrations (up to 1 mM) in order to confirm activation of ORs weakly expressed in Hana3A cells.
The activation of OR2AT4 by Sandalore® was first investigated by the calcium imaging method.
Odorants can not only activate a receptor, but can also act as antagonists to an OR.
(§1) Determination of receptive field of recombinantly expressed OR2AT4. […] As a control, untransfected Hana3A cells were simulated with Sandalore®. 100 μM of ATP was used at the end of each measurement as a positive control stimulus. […] The mean response rate including standard error of the cells is shown relative to the Ringer control. […] Isobornyl.: isobornyl cyclohexanol; S. öl: sandalwood oil. Kruskal-Wallis test with multiple comparison. *: p<0.05. […] Significance was determined between Hana3A cells transfected with OR2AT4-pcDNA3 and pcDNA3 without an insert. The dots show mean normalized luciferase-activity including standard error. Mann-Whitney U test; n=3 experiments. *: p<0.05; **: p<0.01; ***: p<0.001.
Antagonists of recombinantly expressed OR2AT4. […] 100 μM of ATP was used at the end of each measurement as a positive control stimulus. […] The mean response rate including standard error of the cells is shown relative to the Ringer control. Number of measurements: Ringer (23), Sandalore® (22), Sandalore®+dimetol (11), dimetol (11), Phenirat (14), Sandalore®+Phenirat (22), Oxyphenylon (12), and Sandalore®+Oxyphenylon (20). S: Sandalore®. Kruskal-Wallis test with multiple comparison. *: p<0.05.

[2] = molecular target: T1, recombinantly expressed OR2AT4; experiment: CRE dual luciferase assay in OR2AT4-transfected Hana3A cells; type: cell-based; details: for activation of the recombinant receptor in the CRE luciferase assay: 4-hour incubation, OR2AT4 expressed in Hana3A cells; for concentration required to produce a significant effect at the receptor: CRE luciferase assay
Text: In order to verify calcium imaging results and investigate dose-dependent activation of OR2AT4, a further method of deorphanization based on a dual luciferase system was used. In this method, in addition to the OR, two luciferases were introduced into the Hana3A cells. When the expressed OR is activated by an odorant and cAMP is formed in the further course of the signal cascade, this initiates expression of firefly luciferase via CRE (cAMP response elements). The second luciferase, Renilla luciferase, serves as a control for transfection and vitality of the cells. By calculating the two luciferase values, the activation capacity of an OR by an odorant can be determined. In the CRE luciferase assay, the odorant remains on the cells for hours in order to ensure that the luciferase is expressed. Because of the longer incubation time of the odorants and the possibility of activating more receptors in a 96-well format, this method is more sensitive than calcium imaging and is well-suited for establishing dose-response relationships.
For Brahmanol, however, a higher concentration (≥75 μM) was required than for Sandalore® (≥25 μM) in order to produce a significant effect at the receptor (FIG. 3c).
as §1

primary keratinocytes = experiment: In vitro wound scratch assay, primary keratinocytes; type: cell-based, human; details: 500 μM, observed for two days
Text: The MAP kinases p38 and ERK1/2 are often associated with increased proliferation and migration in epidermal wound healing. For this reason, in a further physiological experiment, the effect of Sandalore® on “wound healing” of a confluent cell layer of HaCaT cells or primary keratinocytes was investigated. For this purpose, the wound scratch assay was used, which is an established in vitro method for initial investigations of wound healing processes in keratinocytes.
Effect of Sandalore® stimulation on human keratinocytes in an in vitro “wound healing” assay. Investigation of the “wound healing rate” of A) primary keratinocytes and B) HaCaT cells by means of a wound scratch assay in the presence of Sandalore® (500 μM) or 0.1% DMSO as a control. Left: Transmitted light images of the “wound” observed at various times. The growth margin of the cells was surrounded in black. Scale: 200 μm. Right: Quantitative evaluation of the wound scratch assay. The areas of the wounds were measured and compared to the initial wound (0 h). Mean values including standard error. Mann-Whitney U test; n=4 experiments. *: p<0.05; ***: p<0.001. […] The measured wound areas of the treated cells (after 48-hour stimulation) were compared to the control (0.1% DMSO). […] The measured wound areas of the treated cells were compared to the control (0.1% DMSO). […]

Row | SMILES | response rate of the Hana3A cells relative to the Ringer control [1] | agonist or antagonist to heterologously expressed OR2AT4 [1] | agonist or antagonist to heterologously expressed OR2AT4 ([1]; listed as Brahmanol) | activation of the recombinant receptor in the CRE luciferase assay [2] | concentration required to produce a significant effect at the receptor [2] [µM] | faster closing of the scratch (primary keratinocytes) [%] | effect on Sandalore-induced calcium signals in coapplication ([1]; coapplication with Sandalore 1:1, 1 mM respectively) | effect of the odorant alone on the Hana3A cells ([1]; odorant alone, 1 mM) | agonist or antagonist to heterologously expressed OR2AT4 ([1]; listed as Sandalore)
1 | CC1=CCC(CCC(C)CO)C1(C)C (stereo not drawn) [Brahmanol®] | increased response rate in calcium imaging experiments, although the increase was not significant | agonists | only agonists | significant dose-dependent activation | ≥ 75 | 34 | – | – | –
2 | CC(=O)CCc1ccc(O)cc1 [Oxyphenylon] | – | antagonists | – | – | – | – | significantly reduced | no effect | –
3 | CC1=CCC(CCC(C)C(C)O)C1(C)C (stereo not drawn) [Sandalore®] | significantly increased response rate | agonists | – | significant dose-dependent activation | ≥ 25 | 34 | – | – | only agonists
